Data published in a melting point compilation (Tetko et al.; mined from patent text by program, amines drawn as free bases though some values may be those of a salt).

Row | Structure (SMILES) | melting point [°C]
1 | CCCCCCCCCCCCCCCC(=O)OC[C@H]1OCC(=NO)[C@@H](O)[C@@H]1O | 97 to 104
2 | CCCCCCCCCCCCCCCCOCC(=O)O | 64 to 66
3 | CCOC(=O)c1c(NC=CC(=O)C(C)C)sc(-c2ccc(OC)cc2)c1C | 121 to 122
4 | Cn1nnnc1NCC(O)COc1cccc(CN2CCCCC2)c1 (stereo unspecified) | 156 to 157
5 | CCN(CC)C(=O)Cc1ccc(O)c(C(C)C)c1 | 112 to 113
6 | CCn1nc2c(N)nc3ccccc3c2c1CC(C)C | 208 to 209
7 | Cc1cc2c(s1)c(=O)c(S(C)=O)cn2C (stereo unspecified) | 263 to 264
8 | COc1ccc(N2CCN(c3c(C)c(C)c4c(c3C)C(c3ccc(OC(F)(F)F)cc3)C(C)(C)O4)CC2)cc1 (stereo unspecified) | 147 to 148
9 | CCCSc1nsnc1O | 84 to 85
10 | COC(=O)Nc1nc2cc(SCC3CC3)ccc2[nH]1 | 228 to 231
11 | CCCCc1cn(CC2OC(n3cnc4c(NCc5ccc(OC)cc5)ncnc43)C(O)C2O)nn1 (stereo unspecified) | 105
12 | COc1ccc(C2(C)CCc3cc(OC)ccc3C2(O)C#CCCCCOC2CCCCO2)cc1 (stereo unspecified) | 80 to 82
13 | CN1CCN(Cc2cc(-c3ccccc3)c3c(n2)OCCN(Cc2cc(C(F)(F)F)cc(C(F)(F)F)c2)C3=O)CC1 | 181 to 182
14 | CCOCCOC(=O)C1=C(C)NC(COC(N)=O)=C(C(=O)OCC)C1c1cccc([N+](=O)[O-])c1 (stereo unspecified) | 135 to 138
15 | CCCOc1ccc(-c2cc(C)cn2-c2ccc(S(N)(=O)=O)cc2)cc1 | 142 to 145
16 | O=C(CCc1ccsc1)CC(=O)N1CCOCC1 | 81 to 84
17 | COC(=O)c1ccc(Cc2cn(CC(=O)N(C)C)c3ccc(NC(=O)CC4CCCC4)cc23)c(OC)c1 | 129 to 132
18 | CNC(=C[N+](=O)[O-])NCCCCOc1cccc(CCN(C)C)c1 | 59 to 63
19 | CC(C)(C)c1cc(C=C(C#N)C(N)=S)cc(C(C)(C)C)c1 | 172 to 174
20 | CCSc1cccc(C)c1S(=O)(=O)NC(C)(C)C | 94
21 | CC(C)(C)NC(=O)c1nn(-c2ccc(F)cc2)c2c1C1CCC2CC1 | 190 to 193
22 | O=C(O)c1ccc(C(F)F)s1 | 111 to 112
23 | CC(C)(C)Oc1c(-c2ccc(S(C)(=O)=O)cc2)cnn(-c2cccc(Cl)c2)c1=O | 232 to 235

Row | Structure (SMILES) | melting point [°C]
24 | CCS(=O)(=O)Nc1cc(-n2cnc(C(F)(F)F)cc2=O)c(F)cc1C#N | 170
25 | CN1CCC2(CC1)NC(=O)N(c1ccc(C#N)c(C(F)(F)F)c1)C2=N | 199 to 200
26 | CC(C)CCC(C)Oc1c(-c2ccc(S(C)(=O)=O)cc2)cnn(-c2ccc(F)cc2)c1=O (stereo unspecified) | 102 to 103
27 | CCOC(=O)c1nn(Cc2ccc(OC)c(OC)c2)c2cc(OC)c(OC)cc12 | 138 to 141
28 | COc1cc(C(C)(C)CC(C)(C)C)c(OC)cc1C(=O)CCC(=O)O | 142
29 | Cc1nc(C)c(Cl)c(NCc2nccc(SCCCSCC3CN(C)C(=O)O3)c2C)n1 (stereo unspecified) | 121
30 | CCOC(=O)C(=NO)C(=O)Nc1ccc(Cl)cc1C(=O)c1ccccc1 | 98 to 105
31 | CC(C)(C)OC(=O)N1CCC(CBr)CC1 | 48 to 50
32 | CCCCCCCCNc1nc(NCC(O)C2CC(C)(C)NC(C)(C)C2)nc(NCC(O)C2CC(C)(C)NC(C)(C)C2)n1 (stereo unspecified) | 117 to 119
33 | CCCCCc1cccn1NS(=O)(=O)C1CCCC=C1C(=O)OCC (stereo unspecified) | 60 to 61
34 | CC1(C)Oc2ccc(C#N)cc2C(C2=C(C(O)C(N)=O)C=CCC2)=C1O (stereo unspecified) | 235 to 237
35 | NCc1sc(C(c2ccc(Cl)cc2)c2c(Cl)cc(-n3ncc(=O)[nH]c3=O)cc2Cl)nc1-c1ccccc1 (stereo unspecified) | 170
36 | O=C(OCc1ccccc1)c1ccc2cc(-c3ccc(CC(O)CO)c(C45CC6CC(CC(C6)C4)C5)c3)ccc2c1 (stereo unspecified) | 200
37 | O=C1CCCCN1c1ccc(I)cc1 | 108 to 110
38 | CC(C)(C)c1nnc(N)n(N)c1=O | 223 to 224
39 | CCCCc1nc2ccn(CC#N)c(=O)c2n1Cc1ccc(-c2ccccc2C#N)cc1 | 64
40 | CCCc1nccn1S(=O)(=O)c1c[nH]cn1 | 163 to 164
41 | O=C(O)c1ccc2cc(-c3ccc(CCCO)c(C45CC6CC(CC(C6)C4)C5)c3)ccc2c1 | 262
42 | O=C1NCC(C(=O)NCCO[N+](=O)[O-])S1 (stereo unspecified) | 114 to 115
43 | Fc1ccc2[nH]cc(C3=CCC(N4CCC(Cc5ccccc5)CC4)CC3)c2c1 (stereo unspecified) | 72 to 74
44 | Cn1nc(C(=O)O)c(=O)n(C)c1=O | 220 to 223
45 | Nc1ncc2ncn(OCC(O)CO)c2n1 (stereo unspecified) | 183 to 185

More lines, now with the values ahead:

Row | melting point [°C] | Structure (SMILES)
46 | 200 to 201 | COC(=O)c1cc2c([nH]c3ccccc32)s1
47 | 115 to 116 | CC1(C)CC(OC(=O)c2ccccc2)CC(C)(C)N1OCC=Cc1ccccc1
48 | 85 to 86 | COc1c(F)ccc2ccc(Cl)nc12
49 | 291 to 292 | NC(=O)c1cc(N)c(Oc2ccccc2)c(S(N)(=O)=O)c1
50 | 112 to 114 | CC(c1cccc(C2(c3ccccc3)OCCO2)c1)c1nc(N)no1 (stereo unspecified)
51 | 80 to 82 | CC(C(=O)O)c1c(Sc2ccccc2)c2cc(F)ccc2n1Cc1ccc(Cl)cc1 (stereo unspecified)
52 | 78 to 79 | O=C(CCCCl)N(c1ccccc1)c1ccccc1
53 | 172 to 175 | Nn1c(-c2ccccc2Cl)nnc1-c1ccccc1C(F)(F)F
54 | 209 to 210 | CC(C)c1ccc2c(c1)c(-c1ccccc1Cl)c(NC(=O)Nc1cccc(C(F)(F)F)c1)c(=O)n2C
55 | 115 to 117 | O=c1ccc(-c2c(-c3ccccc3)nn3ccccc23)nn1C1CCCCC1
56 | 71 to 72 | CC(C)[C@H](N)C(c1ccccc1)c1ccccc1
57 | 179 to 180 | CCOc1ccc(N2CCN(Cc3c[nH]c4ncccc34)CC2)cc1
58 | 162 to 163 | CC(C)(C)C(O)c1ccc(C(=O)O)cc1 (stereo unspecified)
59 | 178 to 181 | COC(=O)CCc1ccc(Oc2ccc(-c3ccc(C(=N)N)cc3)nn2)cc1
60 | 112 to 115 | COc1ccccc1-c1nn(-c2ccccc2)c(=O)o1
61 | 178 to 179 | COc1cc2nc(Cl)nc(N3CCN(C(=O)Nc4ccc(Oc5ccccc5)cc4)CC3)c2cc1OC
62 | 173 to 175 | CC(NC(=O)C1=C(C(=O)Nc2cc(OC3CCCC3)c(Cl)cc2F)CCCC1)c1ccccc1 (stereo unspecified)
63 | > 200 | CCOC(=O)c1ccc(NCc2ccc3ccc4nc(C)[nH]c(=O)c4c3c2)cc1F
64 | 95 to 100 | COc1ccc2c(c1)NCC(c1ccccc1)O2 (stereo unspecified)

Row | melting point [°C] | Structure (SMILES)
65 | 106 to 108 | CC(C)(C)c1cc(C(=O)c2nccs2)cc(C(C)(C)C)c1O
66 | 133 to 134 | CN(C)C(=S)n1c(SC(F)(F)C(F)F)nc(-c2ccccc2)c1-c1ccccc1
67 | 280 to 285 | CCCC(c1ccccc1)c1ccc(-c2cnn3c(O)ncnc23)cc1 (stereo unspecified)
68 | 161 | CCOC(=O)c1[nH]nnc1Nc1ccc(Cl)cc1
69 | 59 to 60 | CC(O)CCc1ccc(-c2ccccc2F)cc1 (stereo unspecified)
70 | 179 to 180 | COC(=O)c1cc(O)c2ccc(OCc3ccccc3)cc2c1
71 | 139 to 141 | Cn1c(C(F)(F)F)cc(=O)n(-c2ccc3snc(C4(O)N=C(c5ccccc5)NC4=O)c3c2)c1=O (stereo unspecified)
72 | 190 | O=C1NC(c2ccc(Cl)cc2)Nc2ccccc21 (stereo unspecified)
73 | 151 to 153 | COc1cc2c(cc1C)C1(CO2)C(=O)N(CC2CCCO2)c2ccccc21 (stereo unspecified)
74 | 245 to 247 | Cc1c(Cl)cccc1NS(=O)(=O)c1cc(S(=O)(=O)Nc2cccc(Cl)c2C)c2ccccc2c1O
75 | 116 to 117 | N#Cc1ccccc1CN1CCSC1=O
76 | 135 to 137 | CC(C)(C)OC(=O)NC[C@H]1CN(c2ccc3c(c2)CN(C(=O)OCc2ccccc2)CC3)C(=O)O1
77 | 90 to 91 | CCOC(=O)c1nccn1-c1nc(-c2ccc(Cl)cc2)c(CCCOc2ccccc2OC)o1
78 | 98 to 99 | O=c1c(Cl)c(Cl)cnn1CC=Cc1ccccc1
79 | 147 to 149 | COc1cc(OC)c2c(=O)cc(-c3ccccc3)oc2c1
80 | > 250 | CC(Cc1ccc(C(=O)N[C@@H](CCC(=O)O)C(=O)O)cc1)C1CNc2nc(N)nc(O)c2C1 (stereo partly specified)
81 | 140 to 145 | CC1(C)CN=C(NCC2CCCc3ccc(S(=O)(=O)c4ccccc4)cc32)NC1 (stereo unspecified)
82 | 60 to 62 | CCNC(=O)OCCOc1ccc(Oc2ccc(F)cc2)cc1
83 | 98 to 100 | COCc1cc2c3ccccc3n(C)c(=O)n2n1

Row | melting point [°C] | Structure (SMILES)
84 | 256 to 258 | O=c1cc(-c2ccc(O)c(F)c2)oc2ccc(CO)cc12
85 | 174 to 175 | N#Cc1ccc2c(c1)C[C@H](NS(=O)(=O)c1ccccc1)CN2C(=O)c1ccccc1
86 | 117 to 118 | OC(CCc1ccccc1)c1cnc2sc3c(n12)CCC3 (stereo unspecified)
87 | 129 to 131 | CN(C)c1ccc(C(=O)c2cc(C(F)(F)F)cc(C(F)(F)F)c2)cc1
88 | 80 to 84 | O=C(Cn1ncc(-c2ccccc2)c1-c1ccccc1)NCCN1CCCC1
89 | 96 to 98 | CNC(=O)C(=NOC)C1=C(COc2ccccc2C)CC(C)=C(C)C1
90 | 142 to 143 | CCc1cccc(CNC[C@@H](O)[C@H](Cc2cc(F)cc(F)c2)NC(=O)c2ccc3ccncc3c2)c1
91 | 89 to 102 | CC(Oc1ccc(S(C)=O)cc1)c1ccnc2ncnn12 (stereo unspecified)
92 | 160 to 170 | CCOC(=O)c1ccc(N=C(Nc2ccc(C(=O)OCC)cc2)c2cccc(Cl)c2)cc1
93 | 165 to 167 | O=C(O)C1CCCCC1(O)C(=O)c1ccccc1 (stereo unspecified)
94 | 172 to 173 | CC(C)Cn1cnc2c(N)nc3cc(CCc4ccccc4)ccc3c21
95 | 153 to 155 | FC(F)(F)c1cccc2c(-c3ccccc3)c(Sc3ccccc3)cnc12
96 | 240 | CCCCc1nc(CO)c(S(=O)CC)n1Cc1ccc(-c2ccccc2C(=O)O)cc1 (stereo unspecified)
97 | 145 to 146 | O=C(Nc1ccccc1O)c1cccnc1Cl
98 | 180 to 183 | O=[N+]([O-])c1ccc(-n2nc(-c3ccccc3O)nc2-c2ccccc2O)cc1
99 | 225 to 227 | CCC(=O)NCC(C)(C)c1ccc(C(=O)Nc2cn3cc(Cl)ccc3n2)cc1
100 | 126 to 127 | Nc1nc2ccccc2c2c1ncn2CCOCCCc1ncccn1
101 | 190 to 195 | OCc1nc2n(n1)-c1ccccc1N(c1ccc(Cl)cc1)C2
